Reference: PubChem BioAssay (NCI)
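Compound exposure: 48 hours, 5 concentrations, 96-well plates. At the TGI there is no net growth.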

What was measured:
Assay in all cases: DTP human tumour cell line panel, 48 h
[1] = test system: KM12 colon
[2] = test system: COLO 205 colon
[3] = test system: LXFL 529 NSCLC
[4] = test system: TK-10 renal
[5] = test system: NCI-H226 lung
[6] = test system: HCT-116 colon
[7] = test system: U251 CNS
[8] = test system: SF-539 CNS
[9] = test system: RPMI-8226 leukemia
[10] = test system: HCT-15 colon
[11] = test system: UO-31 renal
[12] = test system: HT29 colon
[13] = test system: KM20L2 colon
[14] = test system: EKVX NSCLC
[15] = test system: OVCAR-8 ovarian
[16] = test system: CAKI-1 renal
[17] = test system: DMS 114 small cell lung
[18] = test system: SF-295 CNS
[19] = test system: NCI-H460 lung
[20] = test system: NCI/ADR-RES ovarian
[21] = test system: BT-549 breast
[22] = test system: SK-OV-3 ovarian
[23] = test system: MDA-MB-435
[24] = test system: HOP-62 NSCLC
[25] = test system: HS 578T breast
[26] = test system: SNB-19 CNS
[27] = test system: SK-MEL-28 melanoma
[28] = test system: A549 NSCLC
[29] = test system: PC-3 prostate
[30] = test system: SN12C renal
[31] = test system: LOX IMVI melanoma
[32] = test system: OVCAR-4 ovarian
[33] = test system: MDA-MB-231 breast
[34] = test system: DLD-1 colon
[35] = test system: NCI-H23 lung
[36] = test system: 786-0 renal
[37] = test system: DU-145 prostate
[38] = test system: SW-620 colon
[39] = test system: T-47D breast
[40] = test system: MOLT-4 leukemia
[41] = test system: CCRF-CEM leukemia
[42] = test system: OVCAR-3 ovarian
[43] = test system: SK-MEL-5 melanoma
[44] = test system: UACC-62 melanoma
[45] = test system: SNB-78 CNS
[46] = test system: UACC-257 melanoma
[47] = test system: M19-MEL melanoma
[48] = test system: HOP-18 NSCLC
[49] = test system: K-562 leukemia
[50] = test system: SK-MEL-2 melanoma
[51] = test system: HOP-92 NSCLC
[52] = test system: MDA-N
[53] = test system: SF-268 CNS
[54] = test system: IGROV1 ovarian
[55] = test system: SNB-75 CNS
[56] = test system: SR leukemia
[57] = test system: RXF 393 renal
[58] = test system: MCF7 breast
[59] = test system: HL-60(TB) leukemia
[60] = test system: HCC-2998 colon
[61] = test system: DMS 273 small cell lung
[62] = test system: MALME-3M melanoma
[63] = test system: NCI-H522 lung
[64] = test system: A498 renal
[65] = test system: ACHN renal
[66] = test system: M14 melanoma
[67] = test system: OVCAR-5 ovarian
[68] = test system: XF 498 CNS

`CC(C)(C)C(=O)OCC1C(=O)OCC1C(=O)N1Cc2cc3ccccc3nc2C1` (stereo not drawn) gave a TGI [1] of 29.8 µM, a TGI [2] of 2.41 µM and a TGI [3] of 2.97 µM. It also gave a TGI [4] of 6.35 µM, a TGI [5] of 14 µM and a TGI [6] of 5.28 µM. It also gave a TGI [7] of 20.6 µM, a TGI [8] of 12 µM and a TGI [9] of 4.82 µM. It also gave a TGI [10] of 6.36 µM, a TGI [11] of 7.99 µM and a TGI [12] of 14.2 µM. The TGI [13] was 15.9 µM, the TGI [14] was 22.4 µM and the TGI [15] was 14.8 µM. For the same molecule, the TGI [16] was 3.87 µM, the TGI [17] was 17.8 µM and the TGI [18] was 27.4 µM. The TGI [19] was 5.52 µM, the TGI [20] was 18.9 µM and the TGI [21] was 8.83 µM. For the same molecule, the TGI [22] was 29.8 µM, the TGI [23] was 15.7 µM and the TGI [24] was 22 µM. It also gave a TGI [25] of 64.3 µM, a TGI [26] of 38.6 µM and a TGI [27] of 10.8 µM. For the same molecule, the TGI [28] was 30.8 µM, the TGI [29] was 23 µM and the TGI [30] was 16.8 µM. The TGI [31] was 15.3 µM, the TGI [32] was 7.67 µM and the TGI [33] was 14.4 µM. It also gave a TGI [34] of 3.15 µM, a TGI [35] of 13.6 µM and a TGI [36] of 7.69 µM. For the same molecule, the TGI [37] was 30.2 µM, the TGI [38] was 3.17 µM and the TGI [39] was 7.63 µM. It also gave a TGI [40] of 4.06 µM, a TGI [41] of 5.89 µM and a TGI [42] of 11.8 µM. For the same molecule, the TGI [43] was 28.5 µM, the TGI [44] was 15.7 µM and the TGI [45] was 4.57 µM. It also gave a TGI [46] of 13.4 µM, a TGI [47] of 12.8 µM and a TGI [48] of 6.59 µM. For the same molecule, the TGI [49] was 2.64 µM, the TGI [50] was 22.1 µM and the TGI [51] was 3.69 µM. The TGI [52] was 14.1 µM, the TGI [53] was 24.7 µM and the TGI [54] was 29.1 µM. It also gave a TGI [55] of 19.9 µM, a TGI [56] of 3.77 µM and a TGI [57] of 3.27 µM. It also gave a TGI [58] of 14.6 µM, a TGI [59] of 3.13 µM and a TGI [60] of 29.3 µM. The TGI [61] was 12.7 µM, the TGI [62] was 2.98 µM and the TGI [63] was 2.2 µM. It also gave a TGI [64] of 26 µM, a TGI [65] of 7.54 µM and a TGI [66] of 8.08 µM. It also gave a TGI [67] of 23.1 µM.
For `CC(=O)Nc1ccc(S(=O)(=O)N/N=C/CN2C(=O)c3ccccc3C2=O)cc1`, the TGI [1] was > 100 µM, the TGI [2] was > 100 µM and the TGI [3] was > 100 µM. The TGI [4] was > 100 µM, the TGI [5] was > 100 µM and the TGI [6] was > 100 µM. For the same molecule, the TGI [7] was > 100 µM, the TGI [8] was > 100 µM and the TGI [9] was > 100 µM. For the same molecule, the TGI [10] was > 100 µM, the TGI [11] was > 100 µM and the TGI [12] was > 100 µM. For the same molecule, the TGI [13] was > 100 µM, the TGI [14] was > 100 µM and the TGI [15] was > 100 µM. The TGI [16] was > 100 µM, the TGI [17] was > 100 µM and the TGI [18] was > 100 µM. The TGI [19] was > 100 µM, the TGI [24] was > 100 µM and the TGI [26] was > 100 µM. For the same molecule, the TGI [28] was > 100 µM, the TGI [30] was > 100 µM and the TGI [31] was > 100 µM. The TGI [32] was > 100 µM, the TGI [34] was > 100 µM and the TGI [35] was > 100 µM. The TGI [36] was > 100 µM, the TGI [38] was > 100 µM and the TGI [40] was > 100 µM. The TGI [41] was > 100 µM, the TGI [43] was > 100 µM and the TGI [44] was > 100 µM. For the same molecule, the TGI [46] was > 100 µM, the TGI [47] was > 100 µM and the TGI [49] was > 100 µM. For the same molecule, the TGI [50] was > 100 µM, the TGI [53] was > 100 µM and the TGI [54] was > 100 µM. For the same molecule, the TGI [55] was > 100 µM, the TGI [56] was > 100 µM and the TGI [57] was > 100 µM. The TGI [59] was > 100 µM, the TGI [60] was > 100 µM and the TGI [61] was > 100 µM. For the same molecule, the TGI [62] was > 100 µM, the TGI [63] was > 100 µM and the TGI [64] was > 100 µM. The TGI [65] was > 100 µM, the TGI [68] was > 100 µM and the TGI [66] was > 100 µM.
